Test results published in publication PMC12196476, “New Nitrogen-, Oxygen-, and Sulfur-Containing Heterocyclic Compounds as Anti-Colon Cancer Agents: Synthesis, Multitargeted Evaluations, Molecular Docking Simulations and ADMET Predictions” (Pharmaceuticals, 2025).

Experiments:
[1] = DPPH radical scavenging assay; settings: three independent experiments; read-out: Mean IC50 (mM) for initial DPPH radicals ± SD
Experimental: The antioxidant activities of the studied compounds were assessed using the 1,1-diphenyl-2-picrylhydrazyl (DPPH) radical scavenging method as detailed by Bersuder et al.. The results were expressed as IC50 (mM)—the concentration of the test compound required to neutralize 50% of DPPH radicals.
The antioxidant efficiencies of target compounds were determined using the 1,1-diphenyl-2-picrylhydrazyl (DPPH) radical scavenging method as detailed by Bersuder et al.. […]
S3.2. Evaluation of Biological Activities.
S3.2.1. In vitro DPPH radical scavenging assay.
The antioxidant efficiencies of compounds—3a−e, 8, 9a−c, 13, 14, 17, 18a−h, 20, 22, 23, and 25—were
determined using the 1,1-diphenyl-2-picrylhydrazyl (DPPH) radical scavenging method as
detailed by Bersuder et al.. Fundamentally, the purple color of the stabilized DPPH radical
fades in the presence of an antioxidant, thus, the change of absorbance can be followed
spectrophotometrically at 519 nm. In the assay, equal volumes (0.5 mL) of DPPH ethanolic solution
and each compound (0-2 mg/mL in DMSO) or butylated hydroxytoluene (BHT) as the reference
were mixed well by shaking. The negative control consisted of the same amount of DMSO and
DPPH solution. After, incubation all mixtures at room temperature in the dark for one hour, the
absorbance of the residual DPPH radicals was measured at 519 nm using the UV‐vis
spectrophotometer. The DPPH radical scavenging activity of each compound (%) was calculated
Scavenging activity = (1 − Acompound/AControl) * 100, where Acompound and Acontrol the absorbance values
of each tested compound (or BHT) and the negative control, respectively. The half maximal
inhibitory concentration (IC50) for each compound in mg/mL was deduced by graphing the dose-
response curve relating the scavenging activity (%) to the compound concentration. Data points
represent the mean ± standard deviation (SD) of three independent determinations.

PDK-1 = PDK-1 (Homo sapiens, UniProt Q15118); test: In vitro PDK-1 inhibition assay (Kinase-Glo luminescent kinase kit); format: biochemical; settings: for inhibition at 100 µg/mL: three replicates, read-out: Mean Inhibition Percent ± SD, PDK-1; for IC50: three independent experiments, read-out: Mean IC50 µM ± SD, PDK-1
Experimental: Principally, the PDK-1 inhibitory activities were evaluated using the non-radioactive Kinase-Glo™ Luminescent Kinase Kit (Promega Corporation, Madison, WI, USA) following the instructions of the manufacturer.
S3.2.2. In vitro PDK-1 inhibition assay.
The PDK-1 inhibitory activities of the test compounds were evaluated using the non-radioactive
Kinase-Glo™ Luminescent Kinase kit (Promega Corporation, Madison, WI, USA), following the
manufacturer’s protocol. Briefly, 5 μL of assay buffer—containing 10 × 250 mM Tris-HCl, 50 mM
MgCl2, 5 mM ethyleneglycol-bis(β-aminoethylether)-N,N,N′,N′-tetraacetic acid (EGTA), 10 mM
ethylenedi- aminetetraacetic acid (EDTA), and 10 mM dithiothreitol (DTT)—was added to each
well of a 96-well plate, along with 25 μL of distilled water. Subsequently, 5 μL of each test
compound at various concentrations (50, 100, 200 and 300 μg/mL in 1% DMSO) was added to the
respective wells, except for the two control wells, which received 5 μL of either PBS buffer or 1%
DMSO. Then, 5 μL of pyruvate dehydrogenase E1 (PDH E1) protein (10 μM) and 5 μL of ATP
(10 μM) were added to each well. To initiate phosphorylation, 5 μL of PDK-1 (20 μM) in protein
buffer (1 mM MgCl2, 2000 mM KCl, 40 mM K3PO4) was added to all the wells except the control
wells, which received 5 μL of protein buffer instead. The plate was then mixed thoroughly and
incubated at 37 °C for 30 minutes. After incubation, 50 μL of kinase-Glo® reagent was added to each
well, followed by a 10-minute incubation at room temperature with gentle shaking to stabilize the
luminescent signal. Luminescence was then measured using a microplate reader.
The IC50 value—defined as the concentration of a compound required to reduce luminescence by
50%, compared to untreated control wells—was determined for each compound from the
corresponding dose–response curve generated by plotting PDK-1 inhibition (%) versus compound
concentration. Sodium dichloroacetate (SDA, 1000 μM) was used as a reference PDK-1inhibitor. […]

[2] = biological target: recombinant human LDHA protein (Homo sapiens, UniProt P00338); test: In vitro LDHA inhibitory assay (NADH consumption); format: biochemical; settings: for inhibition at 100 µg/mL: three replicates, read-out: Mean Inhibition Percent ± SD, LDHA; for IC50: three independent experiments, read-out: Mean IC50 µM ± SD, LDHA
From the text: The LDHA inhibitory efficiencies were investigated on Spectramax M2 spectrofluorometer via measuring the amounts of the consumed NADH^40 using an NAD^+/NADH quantification kit. […]
S3.2.3. In vitro LDHA inhibitory assay.
The LDHA inhibitory activity of the test compounds was investigated using Spectramax M2
spectrofluorometer by measuring the amounts of the consumed NADH [42] employing
NAD+/NADH quantification kit. Briefly, the assay medium containing various concentrations of
each test compound (50, 100, 200 and 300 μg/mL) was incubated in assay medium composed of 20
mM of HEPES-K+ buffer (pH 7.2), 20 μM of NADH, 2 mM of pyruvate and 10 ng of purified
recombinant human LDHA protein for 10 min utes. The activity of LDHA would result in reduction
of pyruvate into lactate with concomitant oxidation of NADH to NAD +. Since NADH (reduced
LDHA, could be inversely quantified by monitoring the change in the intensity of the fluorescence
at 340 nm over a 10-minute period. The rate of the fluorescence change (slope) in treated samples
was compared to that obtained from negative control experiment (100 % enzymatic activity) to
determine the percentage of inhibition. The IC50 value—defined as the compound concentration
required to reduce the luminescence by 50%, compared to untreated control wells—was
determined for each compound from the corresponding dose–response curve generated by
plotting LDHA inhibition (%) against compound concentration.
was used as the reference LDHA inhibitor. […]

[3] = tested on: LoVo colon carcinoma cells; test: Cell viability, LDH release assay, LoVo; settings: Homo sapiens, LoVo, 48 h; for viability at 100 µg/mL: read-out: Mean % of viable cells ± SD, LoVo, 100 µg/mL, 48 h, LDH release assay; for IC50: read-out: Mean IC50 Values in µM ± SD, LoVo cells
Experimental: (§1) The studied compounds were also screened for their cytotoxic effects on HCT-116 and LoVo colon carcinoma cells, as well as normal HUVECs, using the standard LDH assay at a concentration of 100 µg/mL.
(§2) The antiproliferative activities of the newly synthesized compounds 3a–e, 8, 9a–c, 13, 14, 17, 18a–h, 20, 22, 23 and 25 were examined on human colon HCT-116 and LoVo cell lines as well as HUVEC (American Type Culture Collection, Manassas, VA, USA). […]
(§3) S3.2.4. Cell culture and viability assay.
(§4) The cytotoxic activities of the newly synthesized compounds (3a-e, 8, 9a-c, 13, 14, 17, 18a-h, 20, 22,
(§5) 23, and 25) were examined on human colon cancer cell lines HCT-116 and Lovo (American Type
(§6) Culture Collection, USA). Various concentrations (50, 100, 200, and 400 μg/mL) of test compounds
(§7) were prepared in Dulbecco’s Modified Eagles Medium (PAN-Biotech, Barcelona, Spain),

[4] = tested on: HCT-116 colon carcinoma cells; test: Cell viability, LDH release assay, HCT-116; settings: Homo sapiens, HCT-116, 48 h; for viability at 100 µg/mL: read-out: Mean % of viable cells ± SD, HCT-116, 100 µg/mL, 48 h, LDH release assay; for IC50: read-out: Mean IC50 Values in µM ± SD, HCT-116 cells
Experimental: as §1, §2, §3, §4, §5, §6, §7

[5] = Cell viability, LDH release assay, normal HUVECs; settings: human, normal HUVECs, Mean % of viable cells ± SD, HUVEC
Experimental: as §1, §2
medium served used as negative and positive controls, respectively. Percentages of viable cells […]
were calculated based on relative optical density (OD) values (at 550 nm) for compound-treated […]
wells (final concentration of 100 μg/mL), compared to the negative control, and expressed as mean value (%) ± SD from two replicates. Graphing dose-response curves representing the compound […]
concentration versus the percentages of viable cells was also conducted to deduce the half - […]
Additionally, the safety profiles of the studied compounds were assessed against normal cells […]
(HUVECs) at final concentration of 100 μg/mL . HUVECs were grown in Dulbecco’s Modified Eagle’s Medium supplemented with 10% FBS, 2 mM glutamine (Sigma Aldrich), 100 units/mL penicillin and […] streptomycin (Life Technologies; Paisley, UK). […]

Chain of PDK-1 (Q15118 29-436): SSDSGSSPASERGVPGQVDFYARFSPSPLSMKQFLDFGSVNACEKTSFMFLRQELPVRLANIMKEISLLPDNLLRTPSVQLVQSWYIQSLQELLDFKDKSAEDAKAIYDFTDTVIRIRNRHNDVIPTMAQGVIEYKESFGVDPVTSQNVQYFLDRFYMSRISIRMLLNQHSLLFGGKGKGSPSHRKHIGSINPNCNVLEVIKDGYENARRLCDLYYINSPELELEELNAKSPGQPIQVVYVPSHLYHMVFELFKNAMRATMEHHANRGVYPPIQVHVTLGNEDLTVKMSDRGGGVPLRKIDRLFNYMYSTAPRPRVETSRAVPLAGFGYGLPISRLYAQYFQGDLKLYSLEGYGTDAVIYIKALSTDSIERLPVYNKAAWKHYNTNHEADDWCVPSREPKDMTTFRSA

Structure (SMILES) | IC50 [1] [mM] | inhibition at 100 µg/mL (PDK-1) [%] | IC50 (PDK-1) [µM] | inhibition at 100 µg/mL [2] [%] | IC50 [2] [µM] | viability at 100 µg/mL [3] [%] | IC50 [3] [µM] | viability at 100 µg/mL [4] [%] | IC50 [4] [µM] | viability at 48 h, 100 µg/mL [5] [%]
COc1cc2nc(C)n(C3CCCCC3)c(=O)c2cc1OC [Compound 14, 3-Cyclohexyl-6,7-dimethoxy-2-methylquinazolin-4(3H)-one] | 0.327 ± 0.007 | 80.5 ± 4.95 | 192 ± 5.57 | 37 ± 2.83 | 378 ± 3.98 | 13 ± 1.14 | 292.1 ± 1.17 | 12.5 ± 0.71 | 293 ± 5.38 | 95 ± 1.82
CCOC(=O)Nn1c(C)nc2cc(OC)c(OC)cc2c1=O [Compound 17, Ethyl (6,7-Dimethoxy-2-methyl-4-oxoquinazolin-3(4H)-yl)carbamate] | 0.307 ± 0.01 | 91 ± 2.83 | 169 ± 1.81 | 5.75 ± 0.35 | 1060 ± 7.64 | 10.5 ± 0.71 | 277 ± 0.21 | 20.5 ± 2.12 | 302 ± 10.5 | 96 ± 2.56
COc1cc(OC)c(/C=N/n2c(C)nc3cc(OC)c(OC)cc3c2=O)c(OC)c1 [Compound 18a, (E)-6,7-Dimethoxy-2-methyl-3-((2,4,6-trimethoxybenzylidene)amino)quinazolin-4(3H)-one] | 1.38 ± 0.039 | 66.7 ± 1.53 |  | 16.6 ± 0.78 |  | 48.3 ± 2.83 | 132 ± 7.4 | 40.7 ± 4.16 | 210 ± 2.42 | 85 ± 1
COc1cc2nc(C)n(/N=C/c3ccc(C(F)(F)F)cc3)c(=O)c2cc1OC [Compound 18c, (E)-6,7-Dimethoxy-2-methyl-3-((4-(trifluoromethyl)benzylidene)amino)quinazolin-4(3H)-one] | 0.606 ± 0.015 | 44.7 ± 1.53 |  | 21.1 ± 0.99 |  | 63 ± 3 |  | 71.3 ± 6.51 |  | 91.3 ± 2.08
COc1cc(/C=N/n2c(C)nc3cc(OC)c(OC)cc3c2=O)ccc1O [Compound 18d, (E)-3-((4-Hydroxy-3-methoxybenzylidene)amino)-6,7-dimethoxy-2-methylquinazoli-N-4(3H)-one] | 0.658 ± 0.016 | 65 ± 3.46 |  | 12.2 ± 1.98 |  | 30.7 ± 4.24 | 202 ± 7.82 | 38 ± 2 | 238 ± 8.12 | 86.3 ± 1.53
